Source: ChEMBL document CHEMBL4765420, “Design, synthesis and biological evaluation of novel HDAC inhibitors with improved pharmacokinetic profile in breast cancer” (Eur J Med Chem, 2020)
Active and inactive are the calls of the source. The rule behind the calls is not given here.

What was measured:
[1] = target: T1, Protein deacetylase HDAC6 (Homo sapiens, UniProt Q9UBN7); test: Inhibition of recombinant human His-tagged HDAC6 expressed in baculovirus infected insect cells using Ac-Leu-Gly-Lys(Ac)-AMC as substrate measured after 30 mins by fluorescence assay
T1 sequence (Q9UBN7 whole entry): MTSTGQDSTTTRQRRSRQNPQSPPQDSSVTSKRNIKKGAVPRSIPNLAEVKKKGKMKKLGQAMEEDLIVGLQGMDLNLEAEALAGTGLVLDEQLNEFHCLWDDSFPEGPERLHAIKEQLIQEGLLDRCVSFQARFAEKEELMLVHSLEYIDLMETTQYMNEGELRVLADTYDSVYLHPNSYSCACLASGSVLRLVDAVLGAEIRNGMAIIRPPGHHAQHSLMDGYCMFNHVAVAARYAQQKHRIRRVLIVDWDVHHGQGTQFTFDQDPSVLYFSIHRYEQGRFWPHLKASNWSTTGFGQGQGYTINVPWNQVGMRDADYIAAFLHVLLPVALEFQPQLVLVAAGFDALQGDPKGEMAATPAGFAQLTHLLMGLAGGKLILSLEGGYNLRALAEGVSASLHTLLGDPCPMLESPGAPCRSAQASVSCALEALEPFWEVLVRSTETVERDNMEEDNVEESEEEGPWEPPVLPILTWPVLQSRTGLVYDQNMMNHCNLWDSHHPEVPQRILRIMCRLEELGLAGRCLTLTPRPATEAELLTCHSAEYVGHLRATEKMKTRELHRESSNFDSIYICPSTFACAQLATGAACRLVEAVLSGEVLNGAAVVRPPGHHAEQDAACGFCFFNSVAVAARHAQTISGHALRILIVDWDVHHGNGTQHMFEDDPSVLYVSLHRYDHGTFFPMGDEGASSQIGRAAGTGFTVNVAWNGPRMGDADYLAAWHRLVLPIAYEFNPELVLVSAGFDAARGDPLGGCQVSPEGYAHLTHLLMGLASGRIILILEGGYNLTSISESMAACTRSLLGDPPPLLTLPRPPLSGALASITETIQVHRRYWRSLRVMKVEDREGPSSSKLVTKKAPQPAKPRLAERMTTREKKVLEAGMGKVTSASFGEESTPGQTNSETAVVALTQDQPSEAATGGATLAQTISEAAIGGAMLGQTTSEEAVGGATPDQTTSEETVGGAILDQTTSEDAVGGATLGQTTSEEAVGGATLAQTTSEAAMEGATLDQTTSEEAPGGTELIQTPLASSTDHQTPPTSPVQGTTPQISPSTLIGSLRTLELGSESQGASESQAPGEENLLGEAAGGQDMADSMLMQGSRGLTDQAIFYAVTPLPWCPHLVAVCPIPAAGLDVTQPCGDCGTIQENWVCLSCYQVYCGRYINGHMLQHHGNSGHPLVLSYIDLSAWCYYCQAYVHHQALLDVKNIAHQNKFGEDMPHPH

MDA-MB-231 [2] = test: Antiproliferative activity against human MDA-MB-231 cells measured after 24 hrs by MTT assay; type: functional, cell-based; conditions: MDA-MB-231, 24 h
[3] = Half life in Beagle dog at 20 mg/kg, po by LC-MS/MS analysis; type: ADME, organism-based, Canis lupus familiaris; conditions: in vivo
[4] = Tmax in Beagle dog at 20 mg/kg, po by LC-MS/MS analysis; type: ADME, organism-based, Canis lupus familiaris; conditions: in vivo
[5] = Cmax in Beagle dog at 20 mg/kg, po by LC-MS/MS analysis; type: ADME, organism-based, Canis lupus familiaris; parameters: route oral, dose 20 mg/kg; conditions: in vivo
[6] = AUC (0 to t) in Beagle dog at 20 mg/kg, po by LC-MS/MS analysis; type: ADME, organism-based, Canis lupus familiaris; parameters: dose 20 mg/kg; conditions: in vivo
[7] = AUC (0 to infinity) in Beagle dog at 20 mg/kg, po by LC-MS/MS analysis; type: ADME, organism-based, Canis lupus familiaris; parameters: route oral, time infinity, dose 20 mg/kg; conditions: in vivo
MDA-MB-231 [8] = test: Antimetastatic activity against CM-Dil labeled human MDA-MB-231 cells xenografted in Zebrafish AB assessed as reduction in tail metastasis at 2.5 ug/ml measured after 5 days by fluorescence microscopic analysis; type: functional, cell-based; conditions: dose 2.5 µg/ml, time 5.0 day

COc1cc(OC)c2c(N3CCOC[C@@H]3C)nc(-c3cc(C)c(OCCCC(=O)NO)c(C)c3)nc2c1
IC50 [1]: 0.36 µM
IC50 (MDA-MB-231 [2]): 10.8 µM

COc1cc(OC)c2c(N3CCOC[C@H]3C)nc(-c3cc(C)c(OCCCC(=O)NO)c(C)c3)nc2c1
IC50 [1]: 0.33 µM
IC50 (MDA-MB-231 [2]): 11.3 µM

COc1cc(OC)c2c(N3CCSCC3)nc(-c3cc(C)c(OCCCCC(=O)NO)c(C)c3)nc2c1
IC50 [1]: 0.29 µM
IC50 (MDA-MB-231 [2]): 9.83 µM

COc1cc(OC)c2c(N3CCS(=O)(=O)CC3)nc(-c3cc(C)c(OCCCCC(=O)NO)c(C)c3)nc2c1
IC50 [1]: 0.13 µM
IC50 (MDA-MB-231 [2]): 12.1 µM

COc1cc(OC)c2c(N3CCOC[C@H]3C)nc(-c3cc(C)c(OCC(=O)NO)c(C)c3)nc2c1
IC50 [1]: > 20 µM
IC50 (MDA-MB-231 [2]): 31.3 µM

O=C(CCCCCCC(=O)Nc1ccccc1)NO [VORINOSTAT]
t1/2 [3]: 19.2 min
Tmax [4]: 9 min
Cmax [5]: 118.93 ng/mL
AUC(0-t) [6]: 965 ng·h/mL
AUC [7]: 968.32 ng·h/mL
Activity (MDA-MB-231 [8]): Active

COc1cc(OC)c2c(N3CCOC[C@H]3C)nc(-c3cc(C)c(OCCCCC(=O)NO)c(C)c3)nc2c1
IC50 [1]: 0.22 µM
IC50 (MDA-MB-231 [2]): 8.35 µM

COc1cc(OC)c2c(N3CCOC[C@H]3C)nc(-c3cc(C)c(OCCCCCC(=O)NO)c(C)c3)nc2c1
IC50 [1]: 0.102 µM
IC50 (MDA-MB-231 [2]): 5.97 µM

COc1cc(OC)c2c(N3CCOCC3)nc(-c3cc(C)c(OCCCCC(=O)NO)c(C)c3)nc2c1
IC50 [1]: 0.21 µM
IC50 (MDA-MB-231 [2]): 7.21 µM

COc1cc(OC)c2c(N3CCOCC3)nc(-c3cc(C)c(OCCCCCC(=O)NO)c(C)c3)nc2c1
IC50 [1]: 0.119 µM
IC50 (MDA-MB-231 [2]): 5.54 µM
